SMILES strings stand for the structures. Active and inactive are the calls of the source. The calls are words filed in the database; no cut-off is given here. A value given as a limit tells only on which side of the number the result lay.

Data set [1] is described as follows: Modulation of gamma-secretase expressed in CHO cells co-expressing APP V717F mutant assessed as reduction in amyloid beta42 production after 17 hrs by ELISA. The class given is cell-based. (In general: ELISA stands for enzyme-linked immunosorbent assay.)
In data set [2] the test system is Mus musculus. Description: Inhibition of gamma-secretase-mediated cleavage of APP in wild type CF1 mouse brain assessed as inhibition of amyloid beta42 production at 30 mg/kg, po after 4 hrs by ELISA. The class given is functional. Particulars: Mus musculus, CF1, Brain, po, 4 h.
The nature of data set [3]: Drug uptake in wild type CF1 mouse brain at 30 mg/kg, po after 4 hrs. The class given is ADME, organism-based. Set-up: dose 30 mg/kg, route oral. Particulars: read-out: Drug uptake.
The nature of data set [4]: Drug uptake in wild type CF1 mouse plasma at 30 mg/kg, po after 4 hrs. Details: dose 30 mg/kg, route oral. Format: ADME, organism-based.
Data set [5] has as its system Mus musculus. Description: Inhibition of gamma-secretase-mediated cleavage of APP in wild type CF1 mouse brain assessed as inhibition of amyloid beta42 production at 50 mg/kg, po after 4 hrs by ELISA. The class given is functional.
A short description of data set [6]: Drug uptake in wild type CF1 mouse brain at 50 mg/kg, po after 4 hrs. Particulars: read-out: Drug uptake. Format: ADME, organism-based. Set-up: dose 50 mg/kg, route oral.
In the next data set the test system is Nucleic Acid. The experiment in a line: Ratio of drug level in brain in wild type CF1 mouse to EC50 for gamma-secretase expressed in CHO cells. Format: cell-based.
The nature of data set [7]: Drug uptake in wild type CF1 mouse plasma at 50 mg/kg, po after 4 hrs. Format: ADME, organism-based. Set-up: dose 50 mg/kg, route oral.
Data set [8] in a line: Oral bioavailability in wild type CF1 mouse. The class given is ADME, organism-based. The conditions noted are these: in vivo.
A short description of data set [9]: Clearance in wild type CF1 mouse. The class given is ADME, organism-based. The conditions noted are these: in vivo.
Data set [10] in a line: Half life in wild type CF1 mouse. Format: ADME, organism-based. Particulars: in vivo.
Data set [11] in a line: Modulation of gamma-secretase-mediated cleavage of APP assessed as reduction in amyloid beta42 production.
In data set [12] the test system is Mus musculus. The experiment in a line: Inhibition of gamma-secretase-mediated cleavage of APP in wild type CF1 mouse brain assessed as inhibition of amyloid beta42 production at 12.5 mg/kg, po after 4 hrs by ELISA. The conditions noted are these: 12.5 mg/kg. The class given is functional.
The next data set relates to Brain. Description: Drug uptake in rat brain at 30 mg/kg, po after 4 hrs. Particulars: in vivo.
A further data set concerns Rattus norvegicus. The experiment in a line: Inhibition of gamma-secretase-mediated cleavage of APP in rat brain assessed as inhibition of amyloid beta42 production at 30 mg/kg, po after 4 hrs by ELISA.

With `CC(C)CCC(c1ccc(CC(=O)O)cc1-c1ccc(C(F)(F)F)cc1)N1CC[C@H](F)C1` (stereo partly specified), the EC50 (usually the concentration at which the effect is half-maximal) in data set [1] worked out at 5900 nM.
In the case of `CC(C)CCC(c1ccc(C(C)C(=O)O)cc1-c1ccc(C(F)(F)F)cc1)N1CCC(C(F)(F)F)CC1` (stereo unspecified), the EC50 in [1] was determined as 340 nM. For the same compound, in the data set on Mus musculus [2], the inhibition in vivo (commonly the change of the read-out against control, counted positive when it falls) at 30 mg/kg was 35%. Also, the concentration at 4 h in [3] came to 13 µM; in data set [4], 22 µM.
Turning to `CC(C)CCN(Cc1ccc(CC(=O)O)cc1-c1ccc(C(F)(F)F)cc1)[C@H]1CC[C@H](C(C)(C)C)CC1`, the EC50 in [1] turned out to be 670 nM. For the same compound, the inhibition in vivo at 50 mg/kg in the data set on Mus musculus [5] amounted to 24%. Further, the concentration at 4 h in data set [6] came to 7 µM. Also, in the data set on Nucleic Acid, the Ratio stood at 10.
Take `CC(C)CCN(Cc1ccc(CC(=O)O)cc1-c1ccc(F)cc1)[C@H]1CC[C@H](C(C)(C)C)CC1`: the 50% effective concentration (EC50) in data set [1] is 5600 nM.
`CC(C)CCC(c1ccc(CC(=O)O)cc1-c1ccc(C(F)(F)F)cc1)N1CCCC(C(F)(F)F)C1` (mixture of isomers): the EC50 in data set [1] was 520 nM.
Take `O=C(O)Cc1ccc(C(C2CCCCC2)N2CCC(C(F)(F)F)CC2)c(-c2ccc(C(F)(F)F)cc2)c1` (stereo unspecified): the EC50 in data set [1] stood at 420 nM. Also, in the data set on Mus musculus [2], the inhibition in vivo at 30 mg/kg was found to be 15%. The concentration at 4 h in data set [3] was found to be 10 µM; in data set [4], 23 µM.
As for `CC(C)CCC(c1ccc(CC(=O)O)cc1-c1ccc(C(F)(F)F)cc1)N1CCC(C(F)(F)F)CC1` (stereo unspecified), in data set [1], the EC50 was determined as 620 nM. Besides, the inhibition in vivo at 50 mg/kg in the data set with Mus musculus [5] amounted to 35%. In addition, the concentration at 4 h was found to be 17 µM in data set [6] and 32 µM in [7]. Besides, the bioavailability (usually dose-corrected exposure relative to a reference, in per cent) in data set [8] is 100%. Also, the clearance – broadly, the rate of elimination divided by the concentration – in data set [9] was determined as 3.2 mL/min/kg. In data set [10], the half-life – broadly, the time in which the quantity being followed falls by half – was 2.9 h.
On to `O=C(O)Cc1ccc(C(CC2CCCCC2)N2CCC(C(F)(F)F)CC2)c(-c2ccc(C(F)(F)F)cc2)c1` (stereo unspecified), for which the EC50 in data set [1] came to 540 nM. Further, the inhibition in vivo at 30 mg/kg with Mus musculus [2] was determined as 30%. The concentration at 4 h is 18 µM in [3] and 25 µM in data set [4].
On to `O=C(O)C1(c2ccc(-c3ccc(Cl)c(Cl)c3)c(F)c2)CC1`, for which, in [11], the EC50 amounted to 40000 nM.
In the case of `CC(C)CCN(Cc1ccc(C(CC(C)C)C(=O)O)cc1-c1ccc(C(F)(F)F)cc1)[C@H]1CC[C@H](C(C)(C)C)CC1` (mixture of isomers), the EC50 in data set [1] was 120 nM. Moreover, the inhibition result with Mus musculus [5] was “inactive”. Also, the concentration at 4 h in [6] turned out to be 0.7 µM.
Take `CC(C)(C)CC(c1ccc(CC(=O)O)cc1-c1ccc(C(F)(F)F)cc1)N1CCC(C(F)(F)F)CC1` (single isomer, unassigned; enantiomer 2): the “inhibition (INH)” value with Mus musculus [12] and with Rattus norvegicus was 30% throughout. This compound also showed a concentration in the data set with Brain of 26 µM.
In the case of `CC(C)CCC(c1ccc(CC(=O)O)cc1-c1ccc(C(F)(F)F)cc1)N1CCC(F)(F)C1` (stereo unspecified), the EC50 in data set [1] was determined as 3300 nM.
For `CC(C)CCC(c1ccc(CC(=O)O)cc1-c1ccc(C(F)(F)F)cc1)N1CC[C@@H](F)C1` (stereo partly specified), in data set [1], the EC50 was more than 10000 nM.
As to `CC(C)CCC(c1ccc(CC(=O)O)cc1-c1ccc(C(F)(F)F)cc1)N1CCC(C)CC1` (stereo unspecified), the EC50 in [1] was found to be 10000 nM.

(Values after ChEMBL document CHEMBL1926647, “Discovery of 4-aminomethylphenylacetic acids as γ-secretase modulators via a scaffold design approach” (Bioorg Med Chem Lett, 2011).)
